This passage reports IC50 results from patent US9546164B2 (GENENTECH, INC., priority 2013, dated 2017).

Counter-ions that a name gives are not always drawn.

The target in the first test is hNav1.7 (Homo sapiens (Human), UniProt Q15858). The experiment in a line: Tritiated sulfonamide competitive binding to membranes from cells expressing hNav1.7 and the β1 subunit.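 Also: Filter-bound radioactivity counted by liquid scintillation, nonspecific binding defined with excess unlabelled ligand, IC50 fitted to percent inhibition of specific binding.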
Sequence of hNav1.7 (Q15858 other isoform, or with tags, fused parts or gaps): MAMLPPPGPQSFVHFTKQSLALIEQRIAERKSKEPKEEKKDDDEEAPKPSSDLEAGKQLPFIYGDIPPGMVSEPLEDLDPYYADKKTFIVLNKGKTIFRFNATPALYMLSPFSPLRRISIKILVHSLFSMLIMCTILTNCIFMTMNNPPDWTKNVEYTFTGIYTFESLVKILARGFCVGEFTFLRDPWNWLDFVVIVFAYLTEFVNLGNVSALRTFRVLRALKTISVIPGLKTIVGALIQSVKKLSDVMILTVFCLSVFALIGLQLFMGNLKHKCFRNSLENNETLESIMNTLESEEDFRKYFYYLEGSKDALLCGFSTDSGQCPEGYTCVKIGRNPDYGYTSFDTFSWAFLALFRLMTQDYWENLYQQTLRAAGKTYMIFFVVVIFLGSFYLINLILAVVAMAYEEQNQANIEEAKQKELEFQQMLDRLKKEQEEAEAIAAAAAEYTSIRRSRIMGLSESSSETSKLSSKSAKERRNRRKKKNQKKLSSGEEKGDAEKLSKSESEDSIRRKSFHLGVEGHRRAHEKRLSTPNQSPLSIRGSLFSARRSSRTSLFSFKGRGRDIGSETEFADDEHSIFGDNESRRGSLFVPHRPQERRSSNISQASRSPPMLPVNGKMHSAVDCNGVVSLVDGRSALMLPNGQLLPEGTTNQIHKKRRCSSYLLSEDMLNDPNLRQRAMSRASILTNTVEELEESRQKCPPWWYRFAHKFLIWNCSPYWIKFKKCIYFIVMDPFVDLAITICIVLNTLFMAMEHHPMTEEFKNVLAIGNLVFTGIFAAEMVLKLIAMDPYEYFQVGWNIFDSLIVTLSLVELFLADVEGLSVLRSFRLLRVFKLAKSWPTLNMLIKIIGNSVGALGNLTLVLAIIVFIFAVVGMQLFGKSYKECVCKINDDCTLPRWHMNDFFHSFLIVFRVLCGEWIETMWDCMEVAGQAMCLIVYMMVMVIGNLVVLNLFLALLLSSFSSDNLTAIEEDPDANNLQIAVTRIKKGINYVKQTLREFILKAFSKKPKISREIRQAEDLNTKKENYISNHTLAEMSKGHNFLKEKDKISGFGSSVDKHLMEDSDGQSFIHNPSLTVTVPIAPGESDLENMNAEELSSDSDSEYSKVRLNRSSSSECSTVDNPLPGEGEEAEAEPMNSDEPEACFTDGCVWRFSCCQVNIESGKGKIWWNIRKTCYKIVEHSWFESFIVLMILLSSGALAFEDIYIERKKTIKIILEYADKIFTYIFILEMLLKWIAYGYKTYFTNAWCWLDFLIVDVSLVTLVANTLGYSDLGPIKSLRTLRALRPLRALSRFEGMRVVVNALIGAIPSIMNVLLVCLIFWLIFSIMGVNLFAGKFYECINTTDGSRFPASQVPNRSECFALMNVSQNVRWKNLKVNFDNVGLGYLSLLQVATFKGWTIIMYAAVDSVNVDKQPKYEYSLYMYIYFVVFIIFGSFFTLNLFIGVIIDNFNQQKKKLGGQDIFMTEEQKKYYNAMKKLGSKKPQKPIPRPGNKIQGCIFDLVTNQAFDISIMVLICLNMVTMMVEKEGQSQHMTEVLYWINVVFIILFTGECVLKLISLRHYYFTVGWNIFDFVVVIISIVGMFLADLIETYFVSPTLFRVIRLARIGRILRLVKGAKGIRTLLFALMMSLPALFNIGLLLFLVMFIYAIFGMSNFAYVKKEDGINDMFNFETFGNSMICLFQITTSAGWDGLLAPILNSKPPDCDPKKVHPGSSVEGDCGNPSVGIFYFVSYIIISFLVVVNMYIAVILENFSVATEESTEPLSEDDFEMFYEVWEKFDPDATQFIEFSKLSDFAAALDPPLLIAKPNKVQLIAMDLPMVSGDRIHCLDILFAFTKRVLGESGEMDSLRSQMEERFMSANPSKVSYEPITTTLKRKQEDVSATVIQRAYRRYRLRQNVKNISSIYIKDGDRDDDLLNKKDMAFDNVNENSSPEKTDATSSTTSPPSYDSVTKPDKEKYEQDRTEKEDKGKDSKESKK
Sequence of hNav1.7 (Q07699 19-218 partner): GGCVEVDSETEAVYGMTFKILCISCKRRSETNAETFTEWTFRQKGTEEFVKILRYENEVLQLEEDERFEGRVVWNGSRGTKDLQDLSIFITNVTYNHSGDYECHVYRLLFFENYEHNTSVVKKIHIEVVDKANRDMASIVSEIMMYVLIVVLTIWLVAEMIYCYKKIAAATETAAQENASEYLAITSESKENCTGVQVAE
Settings: not given
In turn, `CS(=O)(=O)NC(=O)c1cc(C2CC2)c(OCC2CN([C@@H](c3ccccc3)c3ccc(C#N)cc3)C2)cc1F` [Example 110, (S)-4-((1-((4-Cyanophenyl)(phenyl)methyl)azetidin-3-yl)methoxy)-5-cyclopropyl-2-fluoro-N-(methylsulfonyl)benzamide] showed an IC50 of 41.1 nM.

As for `O=C(NS(=O)(=O)C1CC1)c1cc(C2CC2)c(O[C@@H]2CCCN(Cc3ccc(Cl)cc3Cl)C2)cc1F` [Example 31, (R)-5-cyclopropyl-N-(cyclopropylsulfonyl)-4-((1-(2,4-dichlorobenzyl)piperidin-3-yl)oxy)-2-fluorobenzamide], the IC50 was 2.6 nM.

Regarding `CS(=O)(=O)NC(=O)c1cc(C2CC2)c(OCC2CN([C@H](c3ccccc3)c3ccc(C#N)cc3)C2)cc1F` [Example 111, (R)-4-((1-((4-Cyanophenyl)(phenyl)methyl)azetidin-3-yl)methoxy)-5-cyclopropyl-2-fluoro-N-(methylsulfonyl)benzamide], the IC50 amounted to 20.4 nM.

`CS(=O)(=O)NC(=O)c1cc(C2CC2)c(CN2CCC(OCc3cc(Cl)cc(Cl)c3)CC2)cc1F` [Example 511, 5-cyclopropyl-4-((4-((3,5-dichlorobenzyl)oxy)piperidin-1-yl)methyl)-2-fluoro-N-(methylsulfonyl)benzamide, trifluoroacetic acid salt] registered an IC50 of 23.5 nM.

In the case of `O=C(NS(=O)(=O)C1CC1)c1cc(C2CC2)c(CN2CCC(Oc3ccccc3C(F)(F)F)CC2)cc1F` [Example 498, 5-cyclopropyl-N-(cyclopropylsulfonyl)-2-fluoro-4-((4-(2-(trifluoromethyl)phenoxy)piperidin-1-yl)methyl)benzamide], the IC50 was found to be 87.4 nM.

In turn, `O=C(NS(=O)(=O)C1CC1)c1cc(C2CC2)c(O[C@@H]2CCCN(c3cc(Cl)cc(Cl)c3)C2)cc1F` [Example 42, (R)-5-cyclopropyl-N-(cyclopropylsulfonyl)-4-((1-(3,5-dichlorophenyl)piperidin-3-yl)oxy)-2-fluorobenzamide] returned an IC50 of 2.1 nM.

Regarding `O=C(NS(=O)(=O)N1CCC1)c1cc(C2CC2)c(O[C@@H]2CCCN(CC3CCCCC3)C2)cc1F` [Example 11, (R)—N-(azetidin-1-ylsulfonyl)-4-((1-(cyclohexylmethyl)piperidin-3-yl)oxy)-5-cyclopropyl-2-fluorobenzamide], the IC50 was determined as 47.4 nM.

Staying with this test, now noted: read-out: Ligand Binding Assay; 100 pM [3H]compound, membranes with hNav1.7 and β1 subunit, 18 h, room temperature.
`CS(=O)(=O)NC(=O)c1cc(C2CC2)c(O[C@@H]2CCCN(Cc3cccc(OC(F)(F)F)c3)C2)cc1F` [Example 437, (R)-5-cyclopropyl-2-fluoro-N-(methylsulfonyl)-4-((1-(3-(trifluoromethoxy)benzyl)piperidin-3-yl)oxy)benzamide, trifluoroacetic acid salt]: the IC50 was determined as 7.3 nM.

In the case of `COC[C@H](c1cc(Cl)cc(Cl)c1)N1CCC[C@@H](Oc2cc(F)c(C(=O)NS(C)(=O)=O)cc2C2CC2)C1` [Example 448, 5-cyclopropyl-4-(((R)-1-((S)-1-(3,5-dichlorophenyl)-2-methoxyethyl)piperidin-3-yl)oxy)-2-4-N-(methylsulfonyl)benzamide, trifluoroacetic acid salt], the IC50 was determined as 10.5 nM.

With `O=C(NS(=O)(=O)C1CC1)c1cc(C2CC2)c(OCC2CCN(S(=O)(=O)c3cc(F)c(F)c(F)c3)CC2)cc1F` [Example 381, 5-cyclopropyl-N-(cyclopropylsulfonyl)-2-fluoro-4-((1-((3,4,5-trifluorophenyl)sulfonyl)piperidin-4-yl)methoxy)benzamide], the IC50 came out at 14.8 nM.

With `CC(C)Nc1ccc(F)cc1CN1CCC(COc2cc(F)c(C(=O)NS(=O)(=O)C3CC3)cc2C2CC2)CC1` [Example 356, 5-cyclopropyl-N-(cyclopropylsulfonyl)-2-fluoro-4-((1-(5-fluoro-2-(isopropylamino)benzyl)piperidin-4-yl)methoxy)benzamide, trifluoroacetic acid salt], the IC50 amounted to 5.8 nM.

For `O=C(NS(=O)(=O)C1CC1)c1cc(C2CC2)c(OCC2CCN(C(=O)c3ccccc3C(F)(F)F)CC2)cc1F` [Example 256, 5-Cyclopropyl-N-(cyclopropylsulfonyl)-2-fluoro-4-((1-(2-(trifluoromethyl)benzoyl)piperidin-4-yl)methoxy)benzamide], the IC50 is 290 nM.

With `O=C(NS(=O)(=O)C1CC1)c1cc(C2CC2)c(OC[C@@H]2C[C@H]3CC[C@@H](C2)N3Cc2cc(C(F)(F)F)cc(Cl)c2F)cc1F` [Example 396, 4-(((1R,3S,5S)-8-(3-chloro-2-fluoro-5-(trifluoromethyl)benzyl)-8-azabicyclo-[3.2.1]octan-3-yl)methoxy)-5-cyclopropyl-N-(cyclopropylsulfonyl)-2-fluorobenzamide, trifluoroacetic acid salt], the IC50 worked out at 14.8 nM.

As for `O=C(NS(=O)(=O)C1CC1)c1cc(Cl)c(OCC2CCN(Cc3cc(Cl)cc(OC(F)(F)F)c3)CC2)cc1F` [Example 407, 5-chloro-4-((1-(3-chloro-5-(trifluoromethoxy)benzyl)piperidin-4-yl)methoxy)-N-(cyclopropylsulfonyl)-2-fluorobenzamide, trifluoroacetic acid salt], the IC50 is 6.7 nM.

As for `O=C(NS(=O)(=O)N1CCC1)c1cc(C2CC2)c(OCC2CCN(Cc3ccc(C4CC4)cc3Cl)CC2)cc1F` [Example 417, N-(azetidin-1-ylsulfonyl)-4-((1-(2-chloro-4-cyclopropylbenzyl)piperidin-4-yl)methoxy)-5-cyclopropyl-2-fluorobenzamide, trifluoroacetic acid salt], the IC50 amounted to 5.7 nM.

Regarding `CS(=O)(=O)NC(=O)c1cc(C2CC2)c(O[C@@H]2CCCN(Cc3cc(Cl)cc(Cl)c3)C2)cc1F` [Example 440], the IC50 amounted to 0.3 nM.

For `CS(=O)(=O)NC(=O)c1cc(C2CC2)c(OCC2CCN([C@@H](CO)c3cc(Cl)cc(Cl)c3)CC2)cc1F` [Example 266], the IC50 stood at 91 nM.

`C[C@H](c1cc(Cl)cc(Cl)c1)N1CCC(COc2cc(F)c(C(=O)NS(=O)(=O)C3CC3)cc2Cl)CC1` [Example 405, (R)-5-chloro-N-(cyclopropylsulfonyl)-4-((1-(1-(3,5-dichlorophenyl)ethyl)piperidin-4-yl)methoxy)-2-fluorobenzamide, trifluoroacetic acid salt]: the IC50 came to 15 nM.

As to `C[C@@H](c1cc(F)cc(Cl)c1)N1CCC(COc2cc(F)c(C(=O)NS(C)(=O)=O)cc2C2CC2)CC1` (single isomer, unassigned) [Example 231], the IC50 came to 5.9 nM.

On to `O=C(NS(=O)(=O)C1CC1)c1cc(C2CC2)c(OCC2CCN(S(=O)(=O)c3ccc(Br)c(F)c3)CC2)cc1F` [Example 369, 4-((1-((4-bromo-3-fluorophenyl)sulfonyl)piperidin-4-yl)methoxy)-5-cyclopropyl-N-(cyclopropylsulfonyl)-2-fluorobenzamide], for which the IC50 was 14.5 nM.

Regarding `C[C@@H]1CC[C@@H](Oc2cc(F)c(C(=O)NS(=O)(=O)C3CC3)cc2C2CC2)CN1Cc1ccc(F)cc1Cl` [Example 323, 4-(((3R,6R)-1-(2-chloro-4-fluorobenzyl)-6-methylpiperidin-3-yl)oxy)-5-cyclopropyl-N-(cyclopropylsulfonyl)-2-fluorobenzamide], the IC50 amounted to 1.9 nM.

Consider `CC(c1cc(Cl)cc(Cl)c1)N1CCC(COc2cc(F)c(C(=O)NS(=O)(=O)C3CC3)cc2C2CC2)CC1` (centres unmarked) [Example 102, 5-Cyclopropyl-N-(cyclopropylsulfonyl)-4-((1-(1-(3,5-dichlorophenyl)-ethyl)piperidin-4-yl)methoxy)-2-fluorobenzamide], for which the IC50 was found to be 2.54 nM.

For the molecule `CC[C@H](c1cc(Cl)cc(Cl)c1)N1CCC(COc2cc(F)c(C(=O)NS(C)(=O)=O)cc2C2CC2)CC1` [Example 240, (R)-5-cyclopropyl-4-((1-(1-(3,5-dichlorophenyl)propyl)piperidin-4-yl)methoxy)-2-fluoro-N-(methylsulfonyl)benzamide], the IC50 was 2.4 nM.

Regarding `O=C(NS(=O)(=O)C1CC1)c1cc(C2CC2)c(O[C@@H]2CCCN(c3ccc(C(F)(F)F)cn3)C2)cc1F` [Example 491, (R)-5-cyclopropyl-N-(cyclopropylsulfonyl)-2-fluoro-4-((1-(5-(trifluoromethyl)pyridin-2-yl)piperidin-3-yl)oxy)benzamide, trifluoroacetic acid salt], the IC50 came out at 28.3 nM.

`CC1(COc2cc(F)c(C(=O)NS(C)(=O)=O)cc2C2CC2)CCN(Cc2ccc(Cl)c(Cl)c2)CC1` [Example 575, 5-cyclopropyl-4-((1-(3,4-dichlorobenzyl)-4-methylpiperidin-4-yl)methoxy)-2-fluoro-N-(methylsulfonyl)benzamide]: the IC50 was determined as 4.5 nM.

`Cc1cc(F)ccc1CN1CCC[C@@H](Oc2cc(F)c(C(=O)NS(C)(=O)=O)cc2C2CC2)C1` [Example 431, (R)-5-cyclopropyl-2-fluoro-4-((1-(4-fluoro-2-methylbenzyl)piperidin-3-yl)oxy)-N-(methylsulfonyl)benzamide, trifluoroacetic acid salt]: the IC50 turned out to be 3.2 nM.

Regarding `CS(=O)(=O)NC(=O)c1cc(C2CC2)c(OCC2CN(Cc3cccc(F)c3)C2)cc1F` [Example 73, 5-cyclopropyl-2-fluoro-4-((1-(3-fluorobenzyl)azetidin-3-yl)methoxy)-N-(methylsulfonyl)benzamide], the IC50 stood at 1300 nM.

Turning to `CS(=O)(=O)NC(=O)c1cc(C2CC2)c(O[C@@H]2CCCN(CC3(C(F)(F)F)CCC3)C2)cc1F` [Example 328, (R)-5-cyclopropyl-2-fluoro-N-(methylsulfonyl)-4-((1-((1-(trifluoromethyl)cyclobutyl)methyl)piperidin-3-yl)oxy)benzamide], the IC50 worked out at 6.4 nM.

Still in this test, the particulars now being: read-out: Ligand Binding Assay; 100 pM [3H]compound, membranes with hNav1.7 and β1 subunit, 18 h, room temperature; trifluoroacetic acid salt.
In the case of `CS(=O)(=O)NC(=O)c1cc(C2CC2)c(CN2[C@@H]3CC[C@H]2C[C@@H](Oc2ncc(C(F)(F)F)cc2Cl)C3)cc1F` [Example 552, 4-(((1R,3r,5S)-3-((3-chloro-5-(trifluoromethyl)pyridin-2-yl)oxy)-8-azabicyclo[3.2.1]octan-8-yl)methyl)-5-cyclopropyl-2-fluoro-N-(methylsulfonyl)benzamide, trifluoroacetic acid salt], the IC50 is 7 nM.
